Values after ≈ are worked out from the molar mass of the structure shown. Like-named read-outs stand apart in the source and are kept apart here.
Legend:
[1] = tested on: C. neoformans Crm1^OE; assay: microbe, parasite or virus in culture; format: cell-based, Cryptococcus neoformans; conditions: Cryptococcus neoformans, 48 h
Procedure, shortened: (§1)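 Two-fold dilution series prepared from DMSO stocks in RPMI1640 were inoculated with 5000 cfu/mL yeast per CLSI M27, then kept at 37 °C for 2 days.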

[2] = tested on: C. neoformans H99; assay: microbe, parasite or virus in culture; format: cell-based, Cryptococcus neoformans; conditions: Cryptococcus neoformans, H99; compound alone; RPMI1640, 37 °C, 48 h; read-out: MIC
Procedure, shortened: as §1

[3] = tested on: C. neoformans MRL862; assay: microbe, parasite or virus in culture; format: cell-based, Cryptococcus neoformans; conditions: Cryptococcus neoformans, MRL862; compound alone; RPMI1640, 37 °C, 48 h; read-out: MIC
Procedure, shortened: as §1

[4] = tested on: C. neoformans apt1Δ; assay: microbe, parasite or virus in culture; format: cell-based, Cryptococcus neoformans; conditions: Cryptococcus neoformans, 48 h
Procedure, shortened: as §1

[5] = tested on: C. neoformans apt2Δ; assay: microbe, parasite or virus in culture; format: cell-based, Cryptococcus neoformans; conditions: Cryptococcus neoformans, 48 h
Procedure, shortened: as §1

[6] = tested on: C. neoformans apt3Δ; assay: microbe, parasite or virus in culture; format: cell-based, Cryptococcus neoformans; conditions: Cryptococcus neoformans, 48 h
Procedure, shortened: as §1

[7] = tested on: C. neoformans apt4Δ; assay: microbe, parasite or virus in culture; format: cell-based, Cryptococcus neoformans; conditions: Cryptococcus neoformans, 48 h
Procedure, shortened: as §1

[8] = tested on: C. neoformans cdc50Δ; assay: microbe, parasite or virus in culture; format: cell-based, Cryptococcus neoformans; conditions: Cryptococcus neoformans, 48 h
Procedure, shortened: as §1

[9] = tested on: C. neoformans crm1Δ; assay: microbe, parasite or virus in culture; format: cell-based, Cryptococcus neoformans; conditions: Cryptococcus neoformans, 48 h
Procedure, shortened: as §1

[10] = tested on: C. albicans SC5413; assay: microbe, parasite or virus in culture; format: cell-based, Candida albicans; conditions: Candida albicans, SC5413; compound alone; RPMI1640, 37 °C, 48 h; read-out: MIC
Procedure, shortened: as §1

[11] = tested on: A. fumigatus AF293; assay: microbe, parasite or virus in culture; format: cell-based, Aspergillus fumigatus; conditions: Aspergillus fumigatus, AF293, 48 h
[12] = tested on: Cn MRL862; format: cell-based, Cryptococcus neoformans; conditions: RPMI1640, 37 °C, 48 h
Experimental: (§2) All microdilution assays with fungi were carried out in accordance with CLSI protocols from M27 for yeasts and M38 for filamentous fungi, respectively, unless otherwise specified.[64],[65] Briefly, 96-well plates were charged with RPMI1640 media, with operating volume in the first column, 200 μL, and half operating volume, 100 μL, in the remaining wells. Drug stock solution in DMSO was aliquoted into the first well in each row. Half of the volume in the dosed well was serially diluted 2-fold until column 11. Column 11 was used as the negative growth control, and column 12 was used as the positive growth control. ON yeast cultures in YPD were washed twice in DD-H2O, resuspended in PBS, and adjusted to 5000 cfu/mL in RPMI. The 96-well plate was inoculated with 100 μL aliquots of cell suspension per well. Plates were incubated at 37 °C for 2 days.
(§3) To assess drug synergy, the initial media charged to the plate contained the peptide at twice the final operating concentration; the remaining processing steps were identical to the MIC experiment. Upon addition of 100 μL of inoculant, the final operating concentration was achieved. Control MIC plates were prepared alongside drug synergy plates to account for the day-to-day variability in any individual MIC. FIC index is computed using eq 1. All MIC assays and drug synergy assays were completed with two technical replicates per 96-well plate and a minimum of two biological replicates per drug combination. If a difference in MIC between the two technical replicates on the plate were observed, only the higher concentration was reported as the MIC to reduce the possibility of type 1 error (false positive) [drawing 1] 1

[13] = tested on: C. glabrata 2001; format: cell-based, Candida glabrata; conditions: for MIC of antifungal in combination with KKOO / MIC of antifungal in combination with KKOO-NH2: RPMI1640, 37 °C, 48 h
Experimental: as §2, §3

[14] = tested on: Cg FKS1 S629P; assay: Drug synergy (MIC in peptide-supplemented media); format: cell-based, Candida glabrata; conditions: RPMI1640, 37 °C, 48 h
Experimental: as §2, §3

CC[C@H](C)C[C@H](C)CCCCCCCCC(=O)N[C@H]1C[C@@H](O)[C@@H](NCCN)NC(=O)[C@@H]2[C@@H](O)CCN2C(=O)[C@H]([C@H](O)CCN)NC(=O)[C@H]([C@H](O)[C@@H](O)c2ccc(O)cc2)NC(=O)[C@@H]2C[C@@H](O)CN2C(=O)[C@H]([C@@H](C)O)NC1=O [CAS, caspofungin]
MIC [1]: 16 µg/mL (≈ 14.6 µM) | MIC [2]: 16 µg/mL (≈ 14.6 µM) | MIC [3]: 16 µg/mL (≈ 14.6 µM) | MIC [4]: 8 µg/mL (≈ 7.32 µM) | MIC [5]: 16 µg/mL (≈ 14.6 µM) | MIC [6]: 16 µg/mL (≈ 14.6 µM) | MIC [7]: 16 µg/mL (≈ 14.6 µM) | MIC [8]: 4 µg/mL (≈ 3.66 µM) | MIC [9]: 16 µg/mL (≈ 14.6 µM) | MIC [10]: 0.25 µg/mL (≈ 0.229 µM) | MIC [11]: 0.125 µg/mL (≈ 0.114 µM) | MIC of antifungal in combination with KKOO ([12]; +0 μg/mL KKOO (control)): 16 µg/mL | MIC of antifungal in combination with KKOO-NH2 ([12]; +0 μg/mL KKOO-NH2 (control)): 16 µg/mL | MIC of antifungal in combination with KKOO-NH2 ([12]; +1 μg/mL KKOO-NH2): 16 µg/mL | MIC of antifungal in combination with KKOO ([12]; +1 μg/mL KKOO): 16 µg/mL | MIC of antifungal in combination with KKOO-NH2 ([12]; +2 μg/mL KKOO-NH2): 8 µg/mL | MIC of antifungal in combination with KKOO ([12]; +2 μg/mL KKOO): 16 µg/mL | MIC of antifungal in combination with KKOO-NH2 ([12]; +4 μg/mL KKOO-NH2): 4 µg/mL | MIC of antifungal in combination with KKOO ([12]; +4 μg/mL KKOO): 8 µg/mL | MIC of antifungal in combination with KKOO ([13]; +0 μg/mL KKOO (control)): 0.5 µg/mL | MIC of antifungal in combination with KKOO-NH2 ([13]; +0 μg/mL KKOO-NH2 (control)): 0.5 µg/mL | MIC of antifungal in combination with KKOO-NH2 ([13]; +1 μg/mL KKOO-NH2): 0.5 µg/mL | MIC of antifungal in combination with KKOO ([13]; +1 μg/mL KKOO): 0.5 µg/mL | MIC of antifungal in combination with KKOO-NH2 ([13]; +2 μg/mL KKOO-NH2): 0.125 µg/mL | MIC of antifungal in combination with KKOO ([13]; +2 μg/mL KKOO): 0.25 µg/mL | MIC of antifungal in combination with KKOO-NH2 ([13]; +4 μg/mL KKOO-NH2): 0.004 µg/mL | MIC of antifungal in combination with KKOO ([13]; +4 μg/mL KKOO): 0.016 µg/mL | MIC of antifungal in combination with KKOO ([13]; +8 μg/mL KKOO): 0.556 µg/mL | reduction of MIC of antifungal ([13]; in the presence of 2 μg/mL KKOO-NH2): 4 fold | MIC of antifungal in combination with KKOO ([14]; +0 μg/mL KKOO (control)): 1 µg/mL | MIC of antifungal in combination with KKOO-NH2 ([14]; +0 μg/mL KKOO-NH2 (control)): 1 µg/mL | MIC of antifungal in combination with KKOO-NH2 ([14]; +1 μg/mL KKOO-NH2): 0.5 µg/mL | MIC of antifungal in combination with KKOO ([14]; +1 μg/mL KKOO): 0.5 µg/mL | MIC of antifungal in combination with KKOO-NH2 ([14]; +2 μg/mL KKOO-NH2): 0.062 µg/mL | MIC of antifungal in combination with KKOO ([14]; +2 μg/mL KKOO): 0.125 µg/mL | MIC of antifungal in combination with KKOO-NH2 ([14]; +4 μg/mL KKOO-NH2): 0.004 µg/mL | MIC of antifungal in combination with KKOO ([14]; +4 μg/mL KKOO): 0.008 µg/mL

Reference: paper PMC11555678, “Improved Broad Spectrum Antifungal Drug Synergies with Cryptomycin, a Cdc50-Inspired Antifungal Peptide” (ACS Infectious Diseases, 2024)
